pEC50, pIC50: −log10 of the molar value.
Key:
IRAK4 = IRAK4 (Homo sapiens (Human), UniProt Q9NWZ3); assay: IRAK-4 biochemical assay, AlphaScreen format (phosphorylation of a biotin labeled peptide); conditions: 1 nM IRAK4, 1.6 μM peptide, 1 mM ATP, 3.5 h at RT
Method: Biochemical Assay: The biochemical assay is in a AlphaScreen format. The kinase reaction is based on the IRAK-4 phosphorylation of a biotin labeled peptide. The phosphopeptide is incubated with anti-phosphothreonine antibody as well as streptavidin- and protein A-coated beads. Binding of the protein-A coated beads to the antibody and the streptavidin beads to the peptide, leads to an energy transfer from one bead to the other, ultimately producing a luminescent/fluorescent signal.
Generally, the kinase reaction is carried out at 1 nM IRAK4, 1.6 μM peptide, 1 mM ATP in reaction buffer 50 mM Hepes, 60 mM NaCl, 5 mM MgCl2, 0.25 mM MnCl2, 2 mM DTT, 0.01% BSA, 0.01% Tween-20) for 3.5 h at RT.
The compounds described herein were tested for in the above biochemical assay.

A549 cells = assay: Cell-based assay: IL-6 ELISA quantification in A549 cells stimulated with human IL-1beta; conditions: 2 ng/ml human IL-1beta overnight
Method: Cell-based Assay: The cell-based assays is based on IL-6 ELISA quantification. Briefly, A549 cells are cultured in DMEM with 10% FBS medium. When cells reach 80% confluence they are trypsin treated and seeded 180 ul/well in 96-well plate at 2.5×10^4 cells/well. Then, 20 ul of compound serial dilutions (starting at 10 uM, 10 points) are added to the cell plate; incubate for 30 min at 37 C and stimulated with 2 ng/ml human IL-1beta 37 C, 5% CO2 overnight. The next day 100 ul of cell supernatant per well are analyzed on a Human IL-6 Quantikine ELISA kit from R&D Systems.
The compounds described herein were tested for in the above biochemical and cell-based assays.

astrocytes and microglia = conditions: cited from earlier work
primary human astrocytes = conditions: cited from earlier work
primary human microglia = conditions: cited from earlier work

IRAK4, sequence (Q9NWZ3 whole entry, species assumed): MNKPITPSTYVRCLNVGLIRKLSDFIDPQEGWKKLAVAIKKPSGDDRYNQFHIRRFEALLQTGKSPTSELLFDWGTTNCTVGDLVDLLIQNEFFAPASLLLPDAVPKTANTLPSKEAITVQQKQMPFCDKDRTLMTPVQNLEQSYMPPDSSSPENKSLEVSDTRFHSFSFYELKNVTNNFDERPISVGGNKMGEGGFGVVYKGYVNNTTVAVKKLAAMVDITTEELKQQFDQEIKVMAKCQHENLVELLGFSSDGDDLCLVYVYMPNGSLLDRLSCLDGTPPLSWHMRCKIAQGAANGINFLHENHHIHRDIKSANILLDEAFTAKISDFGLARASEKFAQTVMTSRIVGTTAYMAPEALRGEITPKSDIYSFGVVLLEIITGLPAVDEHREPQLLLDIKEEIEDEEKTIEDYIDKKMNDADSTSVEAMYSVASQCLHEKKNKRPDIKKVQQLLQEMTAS

pIC50 (IRAK4)	pEC50 (A549 cells; Homo sapiens, A549, A549 cells)	Structure (SMILES)	also measured
≥ 7.00	≥ 6.00	N[C@H](c1cccc(-c2ccc3cnn(-c4cccc(CF)n4)c3c2)n1)[C@H]1C[C@@H](O)C1 [Compound 16, (1R,3s)-3-((S)-amino(6-(1-(6-(fluoromethyl)pyridin-2-yl)-1H-indazol-6-yl)pyridin-2-yl)methyl)cyclobutanol]	–
≥ 7.00	≥ 6.00	N[C@H](c1cncc(-c2ccc3cnn(-c4cccc(CO)n4)c3c2)n1)[C@H]1C[C@@H](O)C1 [Compound 17, cis-3-((S)-amino(6-(1-(6-(hydroxymethyl)pyridin-2-yl)-1H-indazol-6-yl)pyrazin-2-yl)methyl)cyclobutanol]	–
≥ 7.00	≥ 6.00	N[C@H](c1cccc(-c2cc(OCC(F)F)c3cnn(-c4cccc(CO)n4)c3c2)n1)[C@H]1C[C@@H](O)C1 [Compound 24, (1R,3s)-3-((S)-amino(6-(4-(2,2-difluoroethoxy)-1-(6-(hydroxymethyl)pyridin-2-yl)-1H-indazol-6-yl)pyridin-2-yl)methyl)cyclobutanol]	–
≥ 7.00	5.00 to 6.00	CC(O)c1ccnc(-n2ncc3ccc(-c4cccc([C@@H](N)[C@H]5C[C@@H](O)C5)n4)cc32)n1 (stereo partly drawn) [Compound 25, (1R,3s)-3-((1S)-amino(6-(1-(4-(1-hydroxyethyl)pyrimidin-2-yl)-1H-indazol-6-yl)pyridin-2-yl)methyl)cyclobutanol]	–
≥ 7.00	≥ 6.00	N[C@H](c1cccc(-c2ccc3cnn(-c4cccc(CO)n4)c3c2)n1)C1CC(F)(F)C1 [Compound 26, (S)-(6-(6-(6-(amino(3,3-difluorocyclobutyl)methyl)pyridin-2-yl)-1H-indazol-1-yl)pyridin-2-yl)methanol]	–
≥ 7.00	≥ 6.00	N[C@@H](c1cccc(-c2ccc3cnn(-c4cccc(CO)n4)c3c2)n1)C1CC(F)(F)C1 [Compound 27, (R)-(6-(6-(6-(amino(3,3-difluorocyclobutyl)methyl)pyridin-2-yl)-1H-indazol-1-yl)pyridin-2-yl)methanol]	–
≥ 7.00	≥ 6.00	N[C@H](c1cccc(-c2ccc3cnn(-c4nccc(CO)n4)c3c2)n1)C1CC(F)(F)C1 [Compound 28, (S)-(2-(6-(6-(amino(3,3-difluorocyclobutyl)methyl)pyridin-2-yl)-1H-indazol-1-yl)pyrimidin-4-yl)methanol]	–
≥ 7.00	≥ 6.00	N[C@H](c1cccc(-c2ccc3cnn(-c4cccc(CF)n4)c3c2)n1)C1CC(F)(F)C1 [Compound 29, (S)-(3,3-difluorocyclobutyl)(6-(1-(6-(fluoromethyl)pyridin-2-yl)-1H-indazol-6-yl)pyridin-2-yl)methanamine]	–
≥ 7.00	≥ 6.00	N[C@H](c1cccc(-c2ccc3cnn(-c4cccc(C(F)F)n4)c3c2)n1)C1CC(F)(F)C1 [Compound 30, (S)-(3,3-difluorocyclobutyl)(6-(1-(6-(difluoromethyl)pyridin-2-yl)-1H-indazol-6-yl)pyridin-2-yl) methanamine]	–
≥ 7.00	≥ 6.00	CCOc1cc(-c2cccc([C@H](N)C3CC(F)(F)C3)n2)cc2c1cnn2-c1cccc(CO)n1 [Compound 33, (R)-(6-(6-(6-(amino(3,3-difluorocyclobutyl)methyl)pyridin-2-yl)-4-ethoxy-1H-indazol-1-yl)pyridin-2-yl)methanol]	–
≥ 7.00	≥ 6.00	CCOc1cc(-c2cccc([C@@H](N)C3CC(F)(F)C3)n2)cc2c1cnn2-c1cccc(CO)n1 [Compound 34, (S)-(6-(6-(6-(amino(3,3-difluorocyclobutyl)methyl)pyridin-2-yl)-4-ethoxy-1H-indazol-1-yl)pyridin-2-yl)methanol]	–
≥ 7.00	≥ 6.00	N[C@H](c1cccc(-c2ccc3cnn(-c4cccc(C(F)F)n4)c3c2)n1)C1CC(O)C1 (stereo partly drawn) [Compound 35a, 3-((S)-amino(6-(1-(6-(difluoromethyl)pyridin-2-yl)-1H-indazol-6-yl)pyridin-2-yl)methyl)cyclobutan-1-ol]	–
≥ 7.00	5.00 to 6.00	CCc1cccc(-n2ncc3ccc(-c4cccc([C@@H](N)C5CC(O)C5)n4)cc32)n1 (stereo partly drawn) [Compound 35b, 3-((S)-amino(6-(1-(6-ethylpyridin-2-yl)-1H-indazol-6-yl)pyridin-2-yl)methyl)cyclobutan-1-ol]	–
6.00 to 7.00	5.00 to 6.00	COc1cccc(-n2ncc3ccc(-c4cccc([C@@H](N)C5CC(O)C5)n4)cc32)n1 (stereo partly drawn) [Compound 35e, (S)-3-(amino(6-(1-(6-methoxypyridin-2-yl)-1H-indazol-6-yl)pyridin-2-yl)methyl)cyclobutan-1-ol]	–
≥ 7.00	5.00 to 6.00	CC1(O)CC([C@H](N)c2cccc(-c3ccc4cnn(-c5cccc(CF)n5)c4c3)n2)C1 (stereo partly drawn) [Compound 35f, 3-((S)-amino(6-(1-(6-(fluoromethyl)pyridin-2-yl)-1H-indazol-6-yl)pyridin-2-yl)methyl)-1-methylcyclobutan-1-ol]	–
≥ 7.00	≥ 6.00	CC1(O)CC([C@H](N)c2cccc(-c3ccc4cnn(-c5cccc(C(F)F)n5)c4c3)n2)C1 (stereo partly drawn) [Compound 35g, 3-((S)-amino(6-(1-(6-(difluoromethyl)pyridin-2-yl)-1H-indazol-6-yl)pyridin-2-yl)methyl)-1-methylcyclobutan-1-ol]	–
≥ 7.00	≥ 6.00	COC1CC([C@H](N)c2cccc(-c3ccc4cnn(-c5cccc(C(F)F)n5)c4c3)n2)C1 (stereo partly drawn) [Compound 35h, (S)-(6-(1-(6-(difluoromethyl)pyridin-2-yl)-1H-indazol-6-yl)pyridin-2-yl)(3-methoxycyclobutyl)methanamine]	–
6.00 to 7.00	–	CC1(O)CC([C@H](N)c2cccc(-c3ccc4cnn(-c5cccc(CF)n5)c4c3)n2)C1 (stereo partly drawn) [Compound 35i, 3-((S)-amino(6-(1-(6-(fluoromethyl)pyridin-2-yl)-1H-indazol-6-yl)pyridin-2-yl)methyl)-1-methylcyclobutan-1-ol]	pEC50 (A549 cells; A549 cells): 5.00 to 6.00
–	–	O=C(Nc1nc2ccccc2n1CCN1CCOCC1)c1cccc([N+](=O)[O-])c1 [IRAK-1/4 inhibitor I]	in vitro uptake of amyloid β (Aβ) (astrocytes and microglia): not affected; interleukin-1β-induced secretion of MCP-1 (primary human astrocytes): reduced; interleukin-1β-induced secretion of interleukin 6 (primary human astrocytes): reduced; lipopolysaccharide-induced secretion of monocyte chemotactic protein-1 (MCP-1) (primary human microglia): reduced

— patent US11427561B2, “IRAK4 inhibiting agents” (BIOGEN MA INC., priority 2016, dated 2022)
